Measurements from ChEMBL document CHEMBL4507318, “Data for DCP probe BAY-985” (2021).

How the values were obtained:
[1] = molecular target: G protein-coupled receptor kinase 3 (Homo sapiens) (UniProt P35626)
[2] = molecular target: Sigma non-opioid intracellular receptor 1 (Homo sapiens) (UniProt Q99720); conditions: Compound concentration 10.0 uM
[3] = molecular target: Casein kinase I isoform gamma-1 (Homo sapiens) (UniProt Q9HCP0)
[4] = molecular target: MAP kinase-interacting serine/threonine-protein kinase 1 (Homo sapiens) (UniProt Q9BUB5)
[5] = molecular target: Cyclin-dependent kinase-like 5 (Homo sapiens) (UniProt O76039)
[6] = molecular target: Serine/threonine-protein kinase SIK2 (Homo sapiens) (UniProt Q9H0K1)
[7] = molecular target: Tyrosine-protein kinase receptor TYRO3 (Homo sapiens) (UniProt Q06418)
[8] = molecular target: Dual specificity tyrosine-phosphorylation-regulated kinase 2 (Homo sapiens) (UniProt Q92630)
[9] = molecular target: Hormonally up-regulated neu tumor-associated kinase (Homo sapiens) (UniProt P57058)
[10] = system: Epidermal growth factor receptor (Homo sapiens), P00533 [L858R,T790M]
[11] = molecular target: Receptor-interacting serine/threonine-protein kinase 4 (Homo sapiens) (UniProt P57078)
[12] = molecular target: Dual specificity protein kinase CLK3 (Homo sapiens) (UniProt P49761)
[13] = molecular target: D(4) dopamine receptor (Homo sapiens) (UniProt P21917); conditions: Compound concentration 10.0 uM
[14] = molecular target: Macrophage-stimulating protein receptor (Homo sapiens) (UniProt Q04912)
[15] = molecular target: Serine/threonine-protein kinase SIK1 (Homo sapiens) (UniProt P57059)
[16] = molecular target: Activin receptor type-2A (Homo sapiens) (UniProt P27037)
[17] = molecular target: Receptor-interacting serine/threonine-protein kinase 2 (Homo sapiens) (UniProt O43353)
[18] = molecular target: Serine/threonine-protein kinase 32A (Homo sapiens) (UniProt Q8WU08)
[19] = molecular target: Tyrosine-protein kinase ITK/TSK (Homo sapiens) (UniProt Q08881)
[20] = molecular target: cGMP-dependent protein kinase 1 (Homo sapiens) (UniProt Q13976)
[21] = molecular target: Inhibitor of nuclear factor kappa-B kinase subunit alpha (Homo sapiens) (UniProt O15111)
[22] = molecular target: Bone morphogenetic protein receptor type-2 (Homo sapiens) (UniProt Q13873)
[23] = molecular target: RAC-gamma serine/threonine-protein kinase (Homo sapiens) (UniProt Q9Y243)
[24] = system: Tyrosine-protein kinase ABL1 (Homo sapiens), P00519 [T315I]
[25] = molecular target: Transient receptor potential cation channel subfamily M member 6 (Homo sapiens) (UniProt Q9BX84)
Transient receptor potential cation channel subfamily M member 6 (Homo sapiens), sequence (Q9BX84 whole entry): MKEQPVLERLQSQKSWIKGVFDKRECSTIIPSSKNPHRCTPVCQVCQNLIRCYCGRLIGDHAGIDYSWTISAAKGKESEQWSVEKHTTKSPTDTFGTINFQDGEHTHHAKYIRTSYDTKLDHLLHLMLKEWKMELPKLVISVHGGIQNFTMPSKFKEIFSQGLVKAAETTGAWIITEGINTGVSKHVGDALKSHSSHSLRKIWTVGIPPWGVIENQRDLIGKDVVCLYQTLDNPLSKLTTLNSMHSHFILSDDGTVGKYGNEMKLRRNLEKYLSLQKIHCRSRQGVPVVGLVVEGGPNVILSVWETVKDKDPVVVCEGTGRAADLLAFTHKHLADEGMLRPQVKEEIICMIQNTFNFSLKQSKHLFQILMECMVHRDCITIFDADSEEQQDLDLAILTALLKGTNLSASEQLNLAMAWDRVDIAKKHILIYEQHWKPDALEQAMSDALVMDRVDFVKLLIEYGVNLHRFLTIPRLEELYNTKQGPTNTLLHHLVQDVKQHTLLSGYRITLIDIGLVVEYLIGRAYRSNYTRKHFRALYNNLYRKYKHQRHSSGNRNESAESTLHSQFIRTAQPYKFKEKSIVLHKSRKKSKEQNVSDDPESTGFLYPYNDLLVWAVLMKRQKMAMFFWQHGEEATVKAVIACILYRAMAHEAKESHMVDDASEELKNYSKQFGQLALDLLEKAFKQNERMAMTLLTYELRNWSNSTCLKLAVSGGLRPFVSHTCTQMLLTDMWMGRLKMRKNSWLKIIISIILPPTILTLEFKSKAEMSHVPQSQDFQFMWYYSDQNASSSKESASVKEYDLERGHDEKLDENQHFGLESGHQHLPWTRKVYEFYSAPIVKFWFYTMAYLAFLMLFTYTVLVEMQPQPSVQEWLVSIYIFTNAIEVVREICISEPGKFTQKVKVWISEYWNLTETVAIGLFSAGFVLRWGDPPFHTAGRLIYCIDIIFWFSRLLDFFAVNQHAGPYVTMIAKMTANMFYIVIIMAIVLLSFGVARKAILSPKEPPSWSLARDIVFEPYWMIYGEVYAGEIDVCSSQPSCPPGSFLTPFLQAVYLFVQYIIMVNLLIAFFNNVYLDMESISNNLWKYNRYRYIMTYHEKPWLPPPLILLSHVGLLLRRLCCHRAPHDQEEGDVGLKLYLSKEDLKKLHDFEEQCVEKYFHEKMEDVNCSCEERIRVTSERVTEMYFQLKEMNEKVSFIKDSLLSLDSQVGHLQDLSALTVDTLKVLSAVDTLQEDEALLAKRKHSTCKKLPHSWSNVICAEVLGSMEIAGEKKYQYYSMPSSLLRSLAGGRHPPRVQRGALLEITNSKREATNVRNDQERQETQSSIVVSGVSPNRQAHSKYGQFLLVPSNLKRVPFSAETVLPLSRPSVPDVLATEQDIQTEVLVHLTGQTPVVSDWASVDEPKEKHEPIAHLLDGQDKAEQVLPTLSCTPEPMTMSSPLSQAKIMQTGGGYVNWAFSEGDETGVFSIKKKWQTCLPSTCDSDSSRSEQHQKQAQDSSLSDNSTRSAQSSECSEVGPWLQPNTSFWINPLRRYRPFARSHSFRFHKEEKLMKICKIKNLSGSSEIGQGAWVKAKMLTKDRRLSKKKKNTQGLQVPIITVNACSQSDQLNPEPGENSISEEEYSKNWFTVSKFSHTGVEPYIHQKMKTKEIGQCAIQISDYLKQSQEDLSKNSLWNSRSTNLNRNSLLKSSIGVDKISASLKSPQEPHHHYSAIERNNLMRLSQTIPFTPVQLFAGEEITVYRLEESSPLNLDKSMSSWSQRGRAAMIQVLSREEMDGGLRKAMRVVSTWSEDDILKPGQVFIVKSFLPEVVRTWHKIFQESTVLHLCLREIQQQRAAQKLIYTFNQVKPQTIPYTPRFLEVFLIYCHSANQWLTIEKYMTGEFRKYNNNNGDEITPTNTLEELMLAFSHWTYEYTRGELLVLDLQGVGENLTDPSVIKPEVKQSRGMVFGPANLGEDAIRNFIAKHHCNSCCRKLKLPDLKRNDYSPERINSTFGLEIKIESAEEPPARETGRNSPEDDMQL

[26] = molecular target: Activin receptor type-2B (Homo sapiens) (UniProt Q13705)
[27] = molecular target: Rho-associated protein kinase 2 (Homo sapiens) (UniProt O75116)
[28] = system: Proto-oncogene tyrosine-protein kinase receptor Ret (Homo sapiens), P07949 [M918T]
[29] = molecular target: Muscarinic acetylcholine receptor M3 (Homo sapiens) (UniProt P20309); conditions: Compound concentration 10.0 uM
[30] = molecular target: Kappa-type opioid receptor (Homo sapiens) (UniProt P41145); conditions: Compound concentration 10.0 uM
Kappa-type opioid receptor (Homo sapiens), sequence (P41145 whole entry): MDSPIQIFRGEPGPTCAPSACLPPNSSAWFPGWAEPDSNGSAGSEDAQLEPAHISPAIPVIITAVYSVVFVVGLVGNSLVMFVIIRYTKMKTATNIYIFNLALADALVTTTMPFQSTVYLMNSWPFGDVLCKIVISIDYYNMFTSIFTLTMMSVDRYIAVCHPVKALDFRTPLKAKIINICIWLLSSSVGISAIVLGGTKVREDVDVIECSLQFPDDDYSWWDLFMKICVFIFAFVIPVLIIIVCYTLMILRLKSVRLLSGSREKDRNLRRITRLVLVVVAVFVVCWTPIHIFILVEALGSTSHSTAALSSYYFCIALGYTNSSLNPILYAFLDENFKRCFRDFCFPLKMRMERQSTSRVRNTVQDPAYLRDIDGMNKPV

[31] = molecular target: Cyclin-G-associated kinase (Homo sapiens) (UniProt O14976)
Cyclin-G-associated kinase (Homo sapiens), sequence (O14976 whole entry): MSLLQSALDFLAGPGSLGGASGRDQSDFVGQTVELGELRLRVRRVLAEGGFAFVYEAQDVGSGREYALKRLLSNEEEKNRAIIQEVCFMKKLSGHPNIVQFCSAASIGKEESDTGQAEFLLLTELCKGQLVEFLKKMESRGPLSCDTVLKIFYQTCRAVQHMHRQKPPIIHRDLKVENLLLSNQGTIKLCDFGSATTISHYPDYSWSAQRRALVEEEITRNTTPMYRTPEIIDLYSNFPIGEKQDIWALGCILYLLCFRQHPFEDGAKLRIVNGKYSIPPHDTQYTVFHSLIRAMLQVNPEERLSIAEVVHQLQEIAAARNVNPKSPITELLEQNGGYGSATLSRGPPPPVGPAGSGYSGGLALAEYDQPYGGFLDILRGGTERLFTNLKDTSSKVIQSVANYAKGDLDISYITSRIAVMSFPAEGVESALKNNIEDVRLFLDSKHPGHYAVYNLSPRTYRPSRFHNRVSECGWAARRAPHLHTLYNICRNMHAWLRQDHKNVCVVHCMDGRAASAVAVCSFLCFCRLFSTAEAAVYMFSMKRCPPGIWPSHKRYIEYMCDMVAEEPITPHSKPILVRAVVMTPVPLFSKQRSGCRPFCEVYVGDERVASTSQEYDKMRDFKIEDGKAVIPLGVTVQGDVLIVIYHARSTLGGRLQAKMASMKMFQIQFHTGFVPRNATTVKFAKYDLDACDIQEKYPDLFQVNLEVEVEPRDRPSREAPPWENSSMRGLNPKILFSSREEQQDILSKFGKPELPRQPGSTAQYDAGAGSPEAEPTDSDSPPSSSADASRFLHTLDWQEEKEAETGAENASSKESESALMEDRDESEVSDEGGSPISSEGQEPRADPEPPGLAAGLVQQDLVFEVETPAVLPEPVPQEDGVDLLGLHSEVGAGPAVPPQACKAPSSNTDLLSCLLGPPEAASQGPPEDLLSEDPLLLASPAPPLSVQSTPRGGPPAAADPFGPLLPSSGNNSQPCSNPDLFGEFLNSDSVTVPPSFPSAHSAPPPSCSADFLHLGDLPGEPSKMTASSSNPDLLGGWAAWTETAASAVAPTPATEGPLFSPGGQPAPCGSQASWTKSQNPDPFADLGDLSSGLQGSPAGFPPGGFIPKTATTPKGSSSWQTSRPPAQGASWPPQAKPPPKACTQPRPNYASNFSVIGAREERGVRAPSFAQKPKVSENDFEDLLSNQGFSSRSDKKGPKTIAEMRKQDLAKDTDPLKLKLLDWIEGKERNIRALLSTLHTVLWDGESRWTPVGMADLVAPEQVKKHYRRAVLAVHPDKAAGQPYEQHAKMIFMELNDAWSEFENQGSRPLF

[32] = molecular target: ALK tyrosine kinase receptor (Homo sapiens) (UniProt Q9UM73)
[33] = molecular target: RAF proto-oncogene serine/threonine-protein kinase (Homo sapiens) (UniProt P04049)
[34] = molecular target: Mast/stem cell growth factor receptor Kit (Homo sapiens) (UniProt P10721)
[35] = molecular target: Microtubule-associated serine/threonine-protein kinase 1 (Homo sapiens) (UniProt Q9Y2H9)
[36] = molecular target: Mitogen-activated protein kinase kinase kinase 1 (Homo sapiens) (UniProt Q13233)
[37] = molecular target: Cyclin-dependent kinase 4 (Homo sapiens) (UniProt P11802)
Cyclin-dependent kinase 4 (Homo sapiens), sequence (P11802 whole entry): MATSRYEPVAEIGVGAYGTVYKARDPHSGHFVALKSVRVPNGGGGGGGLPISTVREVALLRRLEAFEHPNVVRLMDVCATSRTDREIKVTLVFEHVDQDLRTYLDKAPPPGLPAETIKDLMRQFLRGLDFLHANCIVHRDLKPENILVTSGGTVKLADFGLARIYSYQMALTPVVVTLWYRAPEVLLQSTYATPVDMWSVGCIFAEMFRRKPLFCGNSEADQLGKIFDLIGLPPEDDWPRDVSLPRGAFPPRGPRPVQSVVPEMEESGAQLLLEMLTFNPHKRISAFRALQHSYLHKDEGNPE

[38] = molecular target: Phosphatidylinositol 4-phosphate 5-kinase type-1 gamma (Homo sapiens) (UniProt O60331)
[39] = molecular target: Serine/threonine-protein kinase ULK1 (Homo sapiens) (UniProt O75385)
[40] = system: Tyrosine-protein kinase ABL1 (Homo sapiens), P00519 [F317I]
[41] = molecular target: Dual specificity tyrosine-phosphorylation-regulated kinase 1A (Homo sapiens) (UniProt Q13627)
[42] = system: Receptor-type tyrosine-protein kinase FLT3 (Homo sapiens), P36888 [N841I]
[43] = molecular target: STE20/SPS1-related proline-alanine-rich protein kinase (Homo sapiens) (UniProt Q9UEW8)
[44] = molecular target: Epithelial discoidin domain-containing receptor 1 (Homo sapiens) (UniProt Q08345)
Epithelial discoidin domain-containing receptor 1 (Homo sapiens), sequence (Q08345 whole entry, the tested form may be a part): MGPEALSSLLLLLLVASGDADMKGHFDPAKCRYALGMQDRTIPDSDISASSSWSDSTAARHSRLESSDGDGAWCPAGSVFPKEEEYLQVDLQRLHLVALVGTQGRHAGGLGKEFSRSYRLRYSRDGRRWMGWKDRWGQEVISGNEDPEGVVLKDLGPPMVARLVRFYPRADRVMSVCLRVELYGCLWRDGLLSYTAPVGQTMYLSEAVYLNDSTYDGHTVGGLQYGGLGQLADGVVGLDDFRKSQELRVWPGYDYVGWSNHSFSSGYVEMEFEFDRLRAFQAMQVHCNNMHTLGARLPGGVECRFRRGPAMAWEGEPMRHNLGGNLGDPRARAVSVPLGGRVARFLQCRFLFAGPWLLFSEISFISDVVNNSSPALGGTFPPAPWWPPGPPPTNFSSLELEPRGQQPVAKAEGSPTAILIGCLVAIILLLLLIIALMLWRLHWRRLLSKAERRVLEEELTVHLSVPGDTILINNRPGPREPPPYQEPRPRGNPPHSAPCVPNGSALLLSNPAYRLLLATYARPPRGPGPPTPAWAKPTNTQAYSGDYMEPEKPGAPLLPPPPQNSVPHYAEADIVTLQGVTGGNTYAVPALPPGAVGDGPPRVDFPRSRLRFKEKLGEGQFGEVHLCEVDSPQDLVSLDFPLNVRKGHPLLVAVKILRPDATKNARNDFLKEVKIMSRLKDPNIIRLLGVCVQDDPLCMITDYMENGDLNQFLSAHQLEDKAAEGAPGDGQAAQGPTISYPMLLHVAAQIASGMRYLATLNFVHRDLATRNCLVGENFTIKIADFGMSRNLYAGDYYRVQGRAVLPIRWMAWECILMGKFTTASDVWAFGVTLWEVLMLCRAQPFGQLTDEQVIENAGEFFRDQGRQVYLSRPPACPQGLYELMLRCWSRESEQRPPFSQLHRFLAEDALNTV

[45] = molecular target: Mitogen-activated protein kinase 12 (Homo sapiens) (UniProt P53778)
[46] = Compound concentration 100.0 nM
[47] = Compound concentration 1000.0 nM

Structure (SMILES): C[C@H](c1ccnc(Nc2nc3ccc(-c4cc(N(C)C)ncn4)cc3[nH]2)c1)N1CCN(C(=O)CC(F)(F)F)CC1 [BAY-985]
- residual activity [1, 46]: 100%
- inhibition [2]: 3.18%
- residual activity [3, 46]: 100%
- residual activity [4, 46]: 92%
- residual activity [5, 46]: 100%
- residual activity [6, 46]: 79%
- residual activity [7, 46]: 96%
- residual activity [8, 46]: 87%
- residual activity [9, 46]: 95%
- residual activity [10, 46]: 100%
- residual activity [11, 46]: 100%
- residual activity [12, 46]: 100%
- inhibition [13]: 8.17%
- residual activity [14, 46]: 80%
- residual activity [15, 46]: 96%
- residual activity [16, 46]: 100%
- residual activity [17, 46]: 71%
- residual activity [18, 46]: 100%
- residual activity [19, 46]: 100%
- residual activity [20, 46]: 100%
- residual activity [21, 46]: 95%
- residual activity [22, 46]: 100%
- residual activity [23, 46]: 100%
- residual activity [24, 46]: 100%
- residual activity [25, 46]: 100%
- residual activity [26, 46]: 81%
- residual activity [27, 46]: 100%
- residual activity [28, 46]: 86%
- inhibition [29]: -8.4%
- inhibition [30]: 4.24%
- residual activity [31, 46]: 95%
- residual activity [32, 46]: 97%
- residual activity [33, 46]: 97%
- residual activity [34, 46]: 88%
- residual activity [35, 46]: 100%
- residual activity [36, 46]: 100%
- residual activity [37, 46]: 89%
- residual activity [38, 46]: 89%
- residual activity [39, 46]: 95%
- residual activity [40, 46]: 100%
- residual activity [41, 46]: 98%
- residual activity [42, 46]: 43%
- residual activity [43, 46]: 100%
- residual activity [44, 46]: 100%
- residual activity [45, 46]: 95%

Structure (SMILES): CN(C)c1ncnc(-c2ccc3nc(Nc4cc(CN5CCN(C(=O)CC(F)(F)F)CC5)ccn4)[nH]c3c2)c1Cl [BAY-440]
- residual activity [1, 47]: 78%
- inhibition [2]: 13.9%
- residual activity [3, 47]: 76%
- residual activity [4, 47]: 62%
- residual activity [5, 47]: 66%
- residual activity [6, 47]: 59%
- residual activity [7, 47]: 100%
- residual activity [8, 47]: 81%
- residual activity [9, 47]: 80%
- residual activity [10, 47]: 82%
- residual activity [11, 47]: 100%
- residual activity [12, 47]: 100%
- inhibition [13]: 7.18%
- residual activity [14, 47]: 98%
- residual activity [15, 47]: 94%
- residual activity [16, 47]: 90%
- residual activity [17, 47]: 37%
- residual activity [18, 47]: 85%
- residual activity [19, 47]: 100%
- residual activity [20, 47]: 94%
- residual activity [21, 47]: 69%
- residual activity [22, 47]: 61%
- residual activity [23, 47]: 96%
- residual activity [24, 47]: 46%
- residual activity [25, 47]: 100%
- residual activity [26, 47]: 100%
- residual activity [27, 47]: 91%
- residual activity [28, 47]: 100%
- inhibition [29]: 23.9%
- inhibition [30]: 33.7%
- residual activity [31, 47]: 82%
- residual activity [32, 47]: 75%
- residual activity [33, 47]: 100%
- residual activity [34, 47]: 100%
- residual activity [35, 47]: 86%
- residual activity [36, 47]: 100%
- residual activity [37, 47]: 70%
- residual activity [38, 47]: 100%
- residual activity [39, 47]: 75%
- residual activity [40, 47]: 71%
- residual activity [41, 47]: 77%
- residual activity [42, 47]: 53%
- residual activity [43, 47]: 69%
- residual activity [44, 47]: 75%
- residual activity [45, 47]: 68%
